This experiment concerns M. tuberculosis H37Rv growth inhibition. Kind of experiment: Confirmatory growth inhibition assay against Mycobacterium tuberculosis H37Rv, potency (AID 1949).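 Also: bacteria grown 7 days with compound before Alamar blue readout.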

≈ marks a conversion by molar mass, not a printed value. Inconclusive results are not listed. Calls of active or inactive are those of the source. No rule for the calls is given here. Bounds are passed on as bounds.

In general, IC50 refers to the concentration at which inhibition is half-maximal. With `O=C(Oc1c(Cl)cc(Cl)c2cccnc12)c1cccc([N+](=O)[O-])c1`, the IC50 is 6.13 µg/mL (≈ 16.9 µM).

For `Cc1c(NC(=O)Nc2cccc(C(F)(F)F)c2)cccc1[N+](=O)[O-]`, the IC50 is 2.93 µg/mL (≈ 8.64 µM).

`Cc1c(C(=O)c2ccccc2)sc2nc(-c3ccccc3)nc(N)c12`: the concentration for half-maximal inhibition (IC50) was 7.76 µg/mL (≈ 22.5 µM).

For `N#Cc1ccc(-c2ccc(OCC(N)=O)cc2)cc1`, the half-inhibitory concentration (IC50) is below 0.1 µg/mL.

For the compound `O=C(Oc1ccc(Cl)cc1)c1ccc(S(=O)(=O)c2ccc(Cl)cc2)cc1`, the IC50 is 1.02 µg/mL (≈ 2.5 µM).

On to `COC(C)(C)C#CC(=O)c1cccc2ccccc12`, for which the IC50 was 2.78 µg/mL (≈ 11 µM).

On to `CCCNc1nc(Nc2ccc(C)cc2)nc(N2CCOCC2)n1`, for which the IC50 is 7.71 µg/mL (≈ 23.5 µM).

Regarding `COc1ccc(NC(=S)NC(=O)CCc2ccccc2)cc1`, the IC50 was 1.92 µg/mL (≈ 6.11 µM).

As for `CC1CC(C)CN(C(=O)Nc2ccc(Cl)c(Cl)c2)C1` (stereo unspecified), the IC50 was 1.21 µg/mL (≈ 4.02 µM).

Regarding `O=C1c2cccc3cccc(c23)C(=O)N1CC1CCN(CC(O)COc2ccc3ccccc3c2)CC1` (stereo unspecified), the IC50 was 0.84 µg/mL (≈ 1.7 µM).

On to `O=[N+]([O-])/C=C/c1ccc(-c2ccccc2C(F)(F)F)o1`, for which the IC50 was 4.61 µg/mL (≈ 16.3 µM).

Consider `COc1ccccc1C(=O)Oc1ccc2c(c1)C(C)CC(C)(C)N2` (stereo unspecified), for which the IC50 is 4.97 µg/mL (≈ 15.3 µM).

Take `COc1nc(SC)nc2sc3c(c12)CCC3`: the half-maximal inhibitory concentration (IC50) is 1.47 µg/mL (≈ 5.82 µM).

For `C#Cc1cccc(NC(=O)COc2ccc(Cl)cc2)c1`, the IC50 was 8.18 µg/mL (≈ 28.6 µM).

For `CCc1ccc(C2=CC(=O)c3ccccc3C2=O)cc1`, the IC50 is 5.94 µg/mL (≈ 22.6 µM).

Regarding `COC(=O)COc1ccc(NC(=O)c2cccc(C)c2)cc1`, the IC50 is 0.58 µg/mL (≈ 1.94 µM).

As for `CC(C)(C)c1cc(Cl)c(O)c(NC(=S)NC(=O)c2cncc(Br)c2)c1`, the IC50 is below 0.1 µg/mL.

With `CCCCOC(=O)COc1ccc2c(=O)c(Oc3ccc(OCC)cc3)c(C)oc2c1`, the IC50 is 1.59 µg/mL (≈ 3.73 µM).

Consider `COc1ccc(C(C)(C)C)cc1NC(=S)Nc1ccc(Cl)c(Cl)c1`, for which the IC50 is 1.43 µg/mL (≈ 3.73 µM).

For the compound `O=c1cc(-c2ccccc2)[nH]n1-c1ccc([N+](=O)[O-])cc1`, the IC50 is 10.8 µg/mL (≈ 38.5 µM).

As for `CC(=O)c1cccc(Nc2cc(C)nc3c2ccc2ccccc23)c1`, the 50% inhibitory concentration (IC50) was 3.1 µg/mL (≈ 9.5 µM).

For `N#Cc1cc2c(cc1C#N)OC(c1ccccc1)=NN2`, the half-maximal inhibitory concentration (IC50) is 16.4 µg/mL (≈ 63.1 µM).

With `COc1ccccc1-c1coc2cc(OCC(=O)OC3CCCCC3)ccc2c1=O`, the IC50 is 0.24 µg/mL (≈ 0.588 µM).

Take `c1ccc(CNCc2cn(-c3ccccc3)nc2-c2ccncc2)cc1`: the IC50 is 16.5 µg/mL (≈ 48.5 µM).

As to `O=C(CSc1ccc(Br)cc1)Nc1ccc([N+](=O)[O-])cc1`, the IC50 is 23.6 µg/mL (≈ 64.2 µM).

Take `O=C(COc1ccc(Cl)cc1Cl)Oc1cccc2cccnc12`: the 50% inhibitory concentration (IC50) was 5.88 µg/mL (≈ 16.9 µM).

Take `Cc1ccc(OCC(=O)c2ccccc2)cc1C`: the IC50 was 4.92 µg/mL (≈ 20.5 µM).

For `CCOC(=O)c1ccc(NC(=O)c2ccc(C)s2)cc1`, the IC50 was 2.22 µg/mL (≈ 7.67 µM).

With `Cc1ccc(Nc2nc(NCc3ccco3)c3ccccc3n2)cc1`, the IC50 is 1.44 µg/mL (≈ 4.36 µM).

For `c1ccc2c(NCCc3c[nH]c4ccccc34)c3ccccc3nc2c1`, the IC50 was 1.51 µg/mL (≈ 4.48 µM).

On to `COc1ccccc1NC(=O)C1=C(C)NC(SCC(=O)Nc2ccccc2[N+](=O)[O-])=C(C#N)C1c1ccccc1F` (stereo unspecified), for which the IC50 was 12 µg/mL (≈ 21 µM).

As to `CCOC(=O)C1=C(C)N=c2s/c(=C\c3ccc([N+](=O)[O-])o3)c(=O)n2C1c1ccc(OCC)cc1` (stereo unspecified), the IC50 is > 50 µg/mL (inactive).

With `CC(Nc1nc(N2CCN(C(=O)c3ccc(Cl)cc3)CC2)nc2ccccc12)c1ccccc1` (stereo unspecified), the IC50 was 2.7 µg/mL (≈ 5.72 µM).

On to `Cc1ccccc1N1CCN(CC(O)COc2ccc(C(=O)c3ccccc3)cc2)CC1` (stereo unspecified), for which the IC50 is 2.81 µg/mL (≈ 6.53 µM).

As to `CC(=O)Oc1cccc2ccc(/C=C/c3ccc(Cl)cc3)nc12`, the IC50 is below 0.1 µg/mL.

As to `O=C(Oc1ccc(Cl)c2cccnc12)c1ccc(Cl)cc1Cl`, the IC50 is 11.6 µg/mL (≈ 32.9 µM).

Consider `CC(=O)Nc1nc2ccccc2n1CCOc1ccccc1`, for which the IC50 was 2.94 µg/mL (≈ 9.95 µM).

In the case of `CCCCc1ccc(NC(=O)c2cc3cc(Br)cc(OC)c3oc2=O)cc1`, the IC50 is 0.69 µg/mL (≈ 1.6 µM).

With `Cc1c(C(=O)Nc2ccc(Cl)cc2)sc(N)c1C(=O)OC(C)C`, the IC50 was 7.88 µg/mL (≈ 22.3 µM).

For the compound `CN1CCN(c2ccc(NC(=O)c3ccc(-c4ccc(Cl)cc4)o3)cc2)CC1`, the IC50 is 38 µg/mL (≈ 96 µM).

As for `C=CCN(CC=C)C(=S)NC(=O)c1ccc(OC)cc1`, the IC50 is > 50 µg/mL (inactive).

As to `Cc1ccc(-c2nc(NC(=O)CO)cs2)cc1`, the IC50 was 0.36 µg/mL (≈ 1.45 µM).

As for `Nc1cc(Oc2ccc(O)c(N)c2)ccc1O`, the IC50 was 6.13 µg/mL (≈ 26.4 µM).

`CCn1nnc(NC(=O)c2sc3ccccc3c2Cl)n1`: the IC50 is 3.02 µg/mL (≈ 9.81 µM).

In the case of `CC(C)(C)c1ccc(C(=O)Nc2cccc(NC(=O)c3cccs3)c2)cc1`, the IC50 was 2.28 µg/mL (≈ 6.02 µM).

Regarding `Cc1cc(=O)oc2cc(OCC(=O)OC3CCCCC3)ccc12`, the half-maximal inhibitory concentration (IC50) is 1.47 µg/mL (≈ 4.65 µM).

As for `COc1ccc(C(=O)c2ccc(N3CCN(C)CC3)c([N+](=O)[O-])c2)c2ccccc12`, the IC50 is 5.57 µg/mL (≈ 13.7 µM).

Regarding `Cc1ccnc(NC(=O)COc2ccc([N+](=O)[O-])cc2)c1`, the IC50 was 0.43 µg/mL (≈ 1.5 µM).

Turning to `COC(=O)COc1ccc2c(-c3ccc(OC)cc3)cc(=O)oc2c1`, the IC50 is 0.86 µg/mL (≈ 2.53 µM).

In the case of `Cc1cc(Cl)ccc1NC(=O)CCc1ccc(S(=O)(=O)NC(C)C)cc1`, the IC50 was 2.93 µg/mL (≈ 7.42 µM).

Take `O=C(Nc1ccc2c(c1)OCCO2)C(Cl)Cl`: the IC50 was 6.65 µg/mL (≈ 25.4 µM).

The record behind these values is PubChem BioAssay AID1949 (Southern Research Institute, 2009).
